IC50 data for 34 compounds are collected here from patent publication US8466155B2, “Pyrimidines” (Boehringer Ingelheim International GmbH, priority 2009, dated 2013).

The structures appear in SMILES notation.

As a reminder, the IC50 is the concentration at which inhibition is half-maximal. A lower IC50 goes with inhibition by little substance.

The experiment deals with T1, PTK2 (Homo sapiens, UniProt Q05397).
T1 construct: purchased Invitrogen PV3832
T1 sequence (Q05397 whole entry): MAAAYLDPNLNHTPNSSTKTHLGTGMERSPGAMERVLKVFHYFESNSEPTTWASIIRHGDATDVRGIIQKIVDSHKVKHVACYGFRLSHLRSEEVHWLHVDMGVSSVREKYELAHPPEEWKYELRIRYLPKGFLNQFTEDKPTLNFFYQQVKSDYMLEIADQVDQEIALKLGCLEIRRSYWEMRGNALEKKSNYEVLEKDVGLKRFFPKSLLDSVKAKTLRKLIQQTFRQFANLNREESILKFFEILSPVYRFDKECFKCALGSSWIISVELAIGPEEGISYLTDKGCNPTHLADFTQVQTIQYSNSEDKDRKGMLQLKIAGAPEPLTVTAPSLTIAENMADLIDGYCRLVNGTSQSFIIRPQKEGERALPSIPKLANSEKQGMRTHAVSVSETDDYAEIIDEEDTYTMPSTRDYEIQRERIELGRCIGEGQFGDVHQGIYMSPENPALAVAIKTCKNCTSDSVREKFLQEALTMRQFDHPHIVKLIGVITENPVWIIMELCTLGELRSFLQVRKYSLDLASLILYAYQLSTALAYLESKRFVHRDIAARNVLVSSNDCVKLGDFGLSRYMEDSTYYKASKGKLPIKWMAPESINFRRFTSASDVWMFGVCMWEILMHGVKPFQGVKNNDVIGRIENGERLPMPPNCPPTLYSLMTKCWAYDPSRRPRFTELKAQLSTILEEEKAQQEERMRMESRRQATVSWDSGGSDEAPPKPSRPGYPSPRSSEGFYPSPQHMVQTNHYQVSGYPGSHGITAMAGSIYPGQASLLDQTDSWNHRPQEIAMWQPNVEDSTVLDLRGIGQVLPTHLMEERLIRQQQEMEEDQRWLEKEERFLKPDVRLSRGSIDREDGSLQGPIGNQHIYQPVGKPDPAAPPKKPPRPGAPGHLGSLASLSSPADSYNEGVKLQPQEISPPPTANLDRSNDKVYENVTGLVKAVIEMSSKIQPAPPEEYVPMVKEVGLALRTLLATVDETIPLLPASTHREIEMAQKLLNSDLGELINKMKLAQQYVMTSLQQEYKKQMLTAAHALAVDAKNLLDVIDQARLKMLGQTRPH
In words: PTK2 enzyme test, Assay 1 (DELFIA, PT60 antibody). It counts as biochemical. The note with it: 1 h pre-incubation, 1 h kinase reaction, values without *. The method, then: This test uses active PTK2 enzyme (Invitrogen Code PV3832) and poly-Glu-Tyr (4:1, Sigma P-0275) as the kinase substrate. The kinase activity is detected through the phosphorylation of the substrate in a DELFIA™ assay. The phosphorylated substrate is detected with the europium-labelled phosphotyrosine antibody PT60 (Perkin Elmer, No.: AD00400).
In order to determine concentration-activity curves with PTK2-inhibitors the compounds are serially diluted in 10% DMSO/H20 and 10 μL of each dilution are placed in each well of a 96-well microtitre plate (clear plate with a U-shaped base, Greiner No. 650101) (the inhibitors are tested in duplicates) and mixed with 10 μL/well of PTK2 kinase (0.01 μg/well). PTK2 kinase has been correspondingly diluted beforehand with kinase dilution buffer (20 mM TRIS/HCl pH 7.5, 0.1 mM EDTA, 0.1 mM EGTA, 0.286 mM sodium orthovanadate, 10% glycerol with the addition of freshly prepared BSA (fraction V, 1 mg/mL) and DTT (1 mM)). The test compound and the PTK2 kinase are pre-incubated for 1 h at RT and shaken at 500 revolutions per min. The reaction is started by the addition of 10 μL/well poly (Glu,Tyr) substrate (25 μg/well poly (Glu, Tyr), 0.05 μg/well biotinylated poly (Glu,Tyr) dissolved in 250 mM TRIS/HCl pH 7.5, 9 mM DTT)—the final concentration of DMSO is 2%. Then 20 μL of ATP Mix (30 mM TRIS/HCl pH 7.5, 0.02% Brij, 0.2 mM sodium orthovanadate, 10 mM magnesium acetate, 0.1 mM EGTA, 1× phosphatase inhibitor cocktail 1 (Sigma, No.: P2850), 50 μM ATP (Sigma, No.: A3377; 15 mM stock solution)) are added. After 1 h of kinase reaction (the plates are shaken at 500 rpm), the reaction is stopped by the addition of 12 μL/well 100 mM EDTA, pH 8.0 and shaken for a further 5 min at RT (500 rpm). 55 μL of the reaction mixture are transferred into a streptavidin plate (Strepta Well High Bind (transparent, 96-well) made by Roche, No.: 11989685001) and incubated for 1 h at RT (shaking at 500 rpm). Then the microtitre plate is washed three times with 200 μL/well D-PBS (Invitrogen, No. 14190). 100 μL of a solution containing DELFIA Eu-N1 Anti-Phosphotyrosine PT60 antibody (Perkin Elmer, No.: AD0040, diluted 1:2000 in DELFIA test buffer (Perkin Elmer, No.: 1244-111)) is then added and the mixture is incubated for 1 h at RT (shaking at 500 rpm). Then the plate is washed three times with 200 μL/well DELFIA washing buffer (Perkin Elmer, No.: 1244-114), 200 μL/well strengthening solution (Perkin Elmer, No.: 1244-105) are added and the mixture is incubated for 10 min at RT (shaking at 300 rpm).
The time-delayed europium fluorescence is then measured in a microtitre plate reader (VICTOR^3, Perkin Elmer). […] Wells that contain test buffer instead of enzyme are used as a control of the background kinase activity.
The IC50 values are determined from analyses of the concentration activity by iterative calculation with the aid of a sigmoid curve analysis algorithm (FIFTY, based on GraphPAD Prism Version 3.03) with a variable Hill coefficient.
As to `COc1cc(C(=O)NC2CCN(C)CC2)ccc1Nc1ncc(C(F)(F)F)c(O[C@@H]2Cc3ccccc3[C@H]2NC(C)=O)n1` [Example 68, 4-[4-((1R,2R)-1-acetylamino-indan-2-yloxy)-5-trifluoromethyl-pyrimidin-2-ylamino]-3-methoxy-N-(1-methyl-piperidin-4-yl)-benzamide], the IC50 is 2 nM.
`COc1cc(C(=O)NN2CCN(C)CC2)c(Cl)cc1Nc1ncc(C(F)(F)F)c(O[C@@H]2CCC[C@H]2N(C)S(C)(=O)=O)n1` [Example 100, 2-chloro-4-{4-[(1R,2R)-2-(methanesulphonyl-methyl-amino)-cyclopentyloxy]-5-trifluoromethyl-pyrimidin-2-ylamino}-5-methoxy-N-(4-methyl-piperazin-1-yl)-benzamide]: half-maximal inhibition (IC50) was put at 0.26 nM.
For `COc1cc(C(=O)NCCN(C)C)c(F)cc1Nc1ncc(C(F)(F)F)c(O[C@@H]2CCCC[C@H]2N(C)S(C)(=O)=O)n1` [Example 110], the IC50 worked out at 0.35 nM.
As for `CONC(=O)c1cc(OC)c(Nc2ncc(C(F)(F)F)c(O[C@@H]3Cc4ccccc4[C@H]3N(C)S(C)(=O)=O)n2)cc1F` [Example 1], the figure is 6 nM.
In the case of `COc1cc(C(=O)NC[C@@H](O)CO)c(F)cc1Nc1ncc(Cl)c(O[C@@H]2Cc3ccccc3[C@H]2N(C)S(C)(=O)=O)n1` [Example 51] it was 13 nM.
In the case of `CNC(=O)c1cc(OC)c(Nc2ncc(C(F)(F)F)c(O[C@@H]3Cc4ccccc4[C@H]3N(C)S(C)(=O)=O)n2)cc1F` [Example 6] it was 17 nM; in that of `COc1cc(C(=O)NC2CCN(C)CC2)ccc1Nc1ncc(C(F)(F)F)c(O[C@@H]2Cc3ccccc3[C@H]2N(C)S(C)(=O)=O)n1` [Example 27, 4-{4-[(1R,2R)-1-(methanesulphonyl-methyl-amino)-indan-2-yloxy]-5-trifluoromethyl-pyrimidin-2-ylamino}-3-methoxy-N-(1-methyl-piperidin-4-yl)-benzamide], 1 nM.
In turn, `COc1cc(C(=O)N(C)C)c(Cl)cc1Nc1ncc(Cl)c(O[C@@H]2Cc3ccccc3[C@H]2N(C)S(C)(=O)=O)n1` [Example 37] returned an IC50 of 28 nM.
`COc1cc(C(=O)NCCN(C)C)c(F)cc1Nc1ncc(C(F)(F)F)c(O[C@@H]2CCC[C@H]2NS(C)(=O)=O)n1` [Example 99] came in with an IC50 of 0.37 nM.
In the case of `COc1cc(NC(=O)C2CCN(C)CC2)ccc1Nc1ncc(C(F)(F)F)c(O[C@@H]2Cc3ccccc3[C@H]2N(C)S(C)(=O)=O)n1` [Example 91] it was 4 nM; in that of `COc1cc(C(=O)NN2CCN(C)CC2)c(F)cc1Nc1ncc(Cl)c(O[C@@H]2Cc3ccccc3[C@H]2N(C)S(C)(=O)=O)n1` [Example 59], 6 nM.
`COc1cc(C(=O)NCCN(C)C)c(Cl)cc1Nc1ncc(C(F)(F)F)c(O[C@@H]2Cc3ccccc3[C@H]2NS(C)(=O)=O)n1` [Example 86] had an IC50 of 0.45 nM.
As for `CNC(=O)c1cc(OC)c(Nc2ncc(Cl)c(O[C@@H]3Cc4ccccc4[C@H]3N(C)S(C)(=O)=O)n2)cc1F` [Example 67], the figure is 16 nM; as for `COc1cc(C(=O)N[C@H]2CC[C@H](O)CC2)c(F)cc1Nc1ncc(Cl)c(O[C@@H]2Cc3ccccc3[C@H]2N(C)S(C)(=O)=O)n1` [Example 55], 6 nM.
In the case of `COc1cc(C(=O)N[C@H]2CCN(C)C[C@@H]2OC)c(F)cc1Nc1ncc(C(F)(F)F)c(O[C@@H]2Cc3ccccc3[C@H]2N(C)S(C)(=O)=O)n1` [Example 31, 2-fluoro-4-{4-[(1R,2R)-1-(methanesulphonyl-methyl-amino)-indan-2-yloxy]-5-trifluoromethyl-pyrimidin-2-ylamino}-5-methoxy-N-((3S,4S)-3-methoxy-1-methyl-piperidin-4-yl)-benzamide] it was 3 nM; in that of `COc1cc(C(=O)NCCN2CCN(C)CC2)c(F)cc1Nc1ncc(C(F)(F)F)c(O[C@@H]2Cc3ccccc3[C@H]2N(C)S(C)(=O)=O)n1` [Example 5], 4 nM; in that of `COc1cc(C(=O)NCCCN(C)C)c(Cl)cc1Nc1ncc(Cl)c(O[C@@H]2Cc3ccccc3[C@H]2N(C)S(C)(=O)=O)n1` [Example 41], 2 nM.
As for `COc1cc(C(=O)NN2CCN(C)CC2)ccc1Nc1ncc(C(F)(F)F)c(O[C@@H]2CCC[C@H]2NS(C)(=O)=O)n1` [Example 73], the figure is 2 nM; as for `COc1cc(C(=O)N(C)C)c(F)cc1Nc1ncc(Cl)c(O[C@@H]2Cc3ccccc3[C@H]2N(C)S(C)(=O)=O)n1` [Example 54], 92 nM.
Compound `COc1cc(C(=O)NCCN(C)C)ccc1Nc1ncc(C(F)(F)F)c(O[C@@H]2Cc3ccccc3[C@H]2N(C)S(C)(=O)=O)n1` [Example 14] gave an IC50 of 3 nM.
As for `COc1cc(C(=O)NC2CCN(C)CC2)c(Cl)cc1Nc1ncc(C(F)(F)F)c(O[C@@H]2Cc3ccccc3[C@H]2NS(C)(=O)=O)n1` [Example 87], the figure is 0.28 nM; as for `COc1cc(C(=O)NC2CCN(C)CC2)ccc1Nc1ncc(C(F)(F)F)c(O[C@@H]2Cc3ccccc3[C@@H]2N(C)S(C)(=O)=O)n1` [Example 69], 42 nM; as for `COc1cc(C(=O)NCCn2ccnc2C)c(Cl)cc1Nc1ncc(Cl)c(O[C@@H]2Cc3ccccc3[C@H]2N(C)S(C)(=O)=O)n1` [Example 35], 2 nM.
The compound `COc1ccc(C(=O)NCCN(C)C)cc1Nc1ncc(C(F)(F)F)c(O[C@@H]2Cc3ccccc3[C@H]2N(C)S(C)(=O)=O)n1` [Example 81] had an IC50 of 0.31 nM.
As for `COc1cc(C(=O)NC2CCN(C)CC2)c(F)cc1Nc1ncc(C(F)(F)F)c(O[C@@H]2Cc3ccccc3[C@H]2NS(C)(=O)=O)n1` [Example 24, 2-fluoro-4-[4-((1R,2R)-1-methanesulphonylamino-indan-2-yloxy)-5-trifluoromethyl-pyrimidin-2-ylamino]-5-methoxy-N-(1-methyl-piperidin-4-yl)-benzamide], the figure is 1 nM; as for `COc1cc(C(=O)NN2CCN(C)CC2)ccc1Nc1ncc(C(F)(F)F)c(O[C@@H]2Cc3ccccc3[C@H]2N(C)S(C)(=O)=O)n1` [Example 19], 4 nM.
The compound `COc1cc(C(=O)N[C@H]2CCN(C)C[C@@H]2OC)ccc1Nc1ncc(C(F)(F)F)c(O[C@@H]2Cc3ccccc3[C@H]2N(C)S(C)(=O)=O)n1` [Example 29, 4-{4-[(1R,2R)-1-(methanesulphonyl-methyl-amino)-indan-2-yloxy]-5-trifluoromethyl-pyrimidin-2-ylamino}-3-methoxy-N-((3S,4S)-3-methoxy-1-methyl-piperidin-4-yl)-benzamide] yielded an IC50 of 3 nM.
Regarding `COc1cc(C(=O)NCCN2CCN(C)CC2)ccc1Nc1ncc(C(F)(F)F)c(O[C@@H]2Cc3ccccc3[C@H]2N(C)S(C)(=O)=O)n1` [Example 16], the IC50 was 4 nM.
In the case of `COc1cc(C(=O)NCC(C)(C)C)ccc1Nc1ncc(C(F)(F)F)c(O[C@@H]2Cc3ccccc3[C@H]2N(C)S(C)(=O)=O)n1` [Example 15] it was 11 nM.
In the case of `COc1cc(C(=O)NN2CCN(C)CC2)ccc1Nc1ncc(C(F)(F)F)c(O[C@@H]2CCC[C@H]2N(C)S(C)(=O)=O)n1` [Example 89] it was 0.33 nM; in that of `COc1cc(C(=O)NCCN(C)C)c(Cl)cc1Nc1ncc(Cl)c(O[C@@H]2Cc3ccccc3[C@H]2N(C)S(C)(=O)=O)n1` [Example 40], 3 nM.
In the case of `COc1cc(C(=O)N[C@H]2CC[C@H](N3CCN(CC4CC4)CC3)CC2)ccc1Nc1ncc(C(F)(F)F)c(O[C@@H]2Cc3ccccc3[C@H]2N(C)S(C)(=O)=O)n1` [Example 18] it was 4 nM; in that of `COc1cc(C(=O)NCCN(C)C)c(F)cc1Nc1ncc(Cl)c(O[C@@H]2Cc3ccccc3[C@H]2N(C)S(C)(=O)=O)n1` [Example 53], 4 nM.
With `COc1cc(C(=O)NC[C@H](O)CO)c(F)cc1Nc1ncc(C(F)(F)F)c(O[C@@H]2Cc3ccccc3[C@H]2N(C)S(C)(=O)=O)n1` [Example 65], the IC50 came to 10 nM.
